{"source": "patent US9645147B2", "about": "“Recombinant polypeptide construct comprising Plasmodium falciparum circumsporozoite protein HLA class I restricted T-cell epitopes” (priority 2013, dated 2017)", "format_in_all_cases": "cell-based, human", "key": {"CD4+ T cells": {"tested_on": "CD4+ T cells", "assay": "Intracellular cytokine staining (ICS), IFN-γ, CD4+ population", "settings": "for ICS CD4+ T cell recall responses (in words): ICS assays, volunteers of Table 6; for CD4+ % (per cent of CD4+ T cells expressing IFN-γ): ICS, positive >0.03%", "experimental": "(§1) Intracellular cytokine staining (ICS) was performed as published previously (Stewart, et al, Infect. Immun., 75: 2283-90 (2007)). Cryopreserved PBMC were thawed, washed, and resuspended at 10×10^6 cells per mL in complete medium. Peptides were used at 10 μg/mL and costimulatory antibodies anti-CD28 and […] (BD Bioscience, San Jose, Calif.) were used at 1 μg/mL. Stimulants were added to cells and incubated at 37° C. with 5% CO2 for 2 hours. Cells were stained with anti-CD3, anti-CD4, anti-CD8, anti-IFN-γ, anti-TNFα, and anti-IL2 and the entire available sample was acquired on a BD LSRII using FACSDiVa (BD Bioscience) software. Data were analyzed using FlowJo Software (Treestar, Inc.). The gating strategy involved progressively measuring total cells; viable cells; lymphocytes; T cells; CD4+ or CD8+ populations; and finally a specific cell type expressing a specific cytokine. Results were transferred to Prism (GraphPad) for graphing and statistical analysis. Data for peptides were corrected for media responses. A positive response was greater than the medium controls+3 standard deviations (0.03%)."}, "[1]": {"tested_on": "PBMC depleted of T-cell subsets", "assay": "ELISpot IFN-γ after T-cell subset depletion (CD4+ or CD8+ Dynabeads, mock control)", "settings": "for confirmation as recalling CD8+ T cell responses: ELISpot depletion and ICS studies; for CD4+ depl. sfc/m: after CD4+ T cell depletion; for CD4+ depl. (%) percent change in ELISpot activity: after CD4+ T cell depletion vs control depletion; for CD8+ depl. sfc/m: after CD8+ T cell depletion; for CD8+ depl. (%) percent change in ELISpot activity: after CD8+ T cell depletion vs control depletion; for Control dept. sfc/m: mock (control) depletion", "description": "For characterization of ELISpot IFN-γ-producing cells by T-cell subset depletions PBMC were depleted of T-cell subsets using anti-human CD4+ or anti-CD8+ coated Dynabeads M-450 (Dynal, Great Neck, N.Y.) following the manufacturer's instructions. Mock depletion was done with Dynabeads coated with sheep anti-mouse IgG. Flow cytometry confirmed that T-cell subset depletions were >99% in all experiments. Data are presented as the spot-forming cells/million (sfc/m) and percent decrease or increase in activity after depletion.\nTo further evaluate the predicted epitopes, ELISpot depletion assays were performed using PBMC from four volunteers stimulated with six predicted and tested epitopes. CD8+ T cell depletion reduced responses to Cp1 and Cp9 by 82%100%."}, "[2]": {"tested_on": "PBMC from volunteers immunized with Ad-CA or Ad-C", "assay": "IFN-γ ELISpot assay with cryopreserved PBMC of immunized volunteers", "settings": "for ELISpot response to synthesized epitope (in words): volunteers, positive = p<0.05, at least doubling and at least ten sfc over negative control; for Epitope sfc/m: Table 4, synthesized 8-10mer epitope; for 15 mer sfc/m: Table 2, individual 15mer at 10 μg/mL", "experimental": "Previous studies have confirmed that recall-T cell responses, as assayed by ELISpot, are detected using cryopreserved PBMCs although such responses are generally of a lower magnitude than fresh cells (Sedegah, et al., Malar J., 9: 241 (2011)).\nThe positive control was commercially obtained Class I Peptide Pool Plus (Anaspec, USA). Negative control was media with all supplements but no antigen-specific stimulant.\nThroughout the studies, IFN-γ ELISpot assays were conducted as previously described (Sedegah, et al., Malar J., 9: 241 (2011); Wang, et al., PNAS (USA), 98: 10817-22 (2001)). Cryopreserved PBMC were suspended in 100 μL complete medium and stimulated with CSP peptides in 100 μL of complete medium at a final concentration of 10 μg/mL of each peptide tested (Wang, et al., PNAS (USA), 98: 10817-22 (2001)).\nCultures were incubated for 36 hours at 37° C., 5% CO2. Depending on availability of cells, each PBMC sample was assayed in duplicate, triplicate, or quadruplicate and the number of IFN-γ-secreting spot forming cells (sfc) was counted using an automated ELISpot reader (AID, GmbH, Germany). In duplicate assays, all values were used in analysis. […] The mean number of sfcs obtained in negative control wells was subtracted from the value of each test well from the same sample. Negative counts generated by this background subtraction were converted to zero. The mean number of spots of the test sample was then calculated and expressed as spot forming cells/million (sfc/m). A positive response was defined as a significant difference (p=<0.05) between average of the number of spot forming cells (sfc) in test wells and the average of negative control wells (Student's two tailed t-test), and at least a doubling of sfc in test wells relative to negative control wells, and a difference of at least ten sfc between test and negative control wells (Sedegah, et al., PLoS One, 6: e24586 (2011))."}, "CD8+ T cells": {"tested_on": "CD8+ T cells", "assay": "Intracellular cytokine staining (ICS), IFN-γ, CD8+ population", "settings": "for ICS CD8+ T cell recall responses (in words): ICS assays, volunteers of Table 6; for CD8+ % (per cent of CD8+ T cells expressing IFN-γ): ICS, positive >0.03%", "experimental": "as §1"}}, "note": "“Also recorded” adds a separate entry of the source. Peptide text beside a SMILES is read from it."}
{"compound": "CC(C)C[C@H](NC(=O)[C@H](C)NC(=O)[C@H](CCC(=O)O)NC(=O)[C@@H](NC(=O)[C@H](Cc1ccccc1)NC(=O)[C@H](CC(C)C)NC(=O)[C@@H](N)Cc1ccccc1)C(C)C)C(=O)N[C@@H](Cc1ccccc1)C(=O)N[C@@H](CCC(N)=O)C(=O)O", "note": "[Epitope E1a] (H-FLFVEALFQ-OH; N-terminus and C-terminus assumed)", "values": [{"measurement": "ICS CD4+ T cell recall responses (in words)", "setting": "CD4+ T cells", "result": "negative"}, {"measurement": "CD4+ % (per cent of CD4+ T cells expressing IFN-γ)", "setting": "CD4+ T cells; V156", "result": 0.03, "unit": "%"}, {"measurement": "confirmation as recalling CD8+ T cell responses", "setting": "[1]", "result": "confirmed as recalling CD8+ T cell responses"}, {"measurement": "CD4+ depl. sfc/m", "setting": "[1]; V156", "result": 215, "unit": "sfc/m"}, {"measurement": "CD4+ depl. (%) percent change in ELISpot activity", "setting": "[1]; V156", "result": "−12", "unit": "%"}, {"measurement": "CD8+ depl. sfc/m", "setting": "[1]; V156", "result": 91, "unit": "sfc/m"}, {"measurement": "CD8+ depl. (%) percent change in ELISpot activity", "setting": "[1]; V156", "result": "−73", "unit": "%"}, {"measurement": "Control dept. sfc/m", "setting": "[1]; V156", "result": 245, "unit": "sfc/m"}, {"measurement": "ELISpot response to synthesized epitope (in words)", "setting": "[2]", "result": "demonstrated activity"}, {"measurement": "ICS CD8+ T cell recall responses (in words)", "setting": "CD8+ T cells", "result": "positive"}, {"measurement": "CD8+ % (per cent of CD8+ T cells expressing IFN-γ)", "setting": "CD8+ T cells; V156", "result": 0.34, "unit": "%"}]}
{"compound": "CC(C)C[C@H](NC(=O)[C@H](C)NC(=O)[C@H](CCC(=O)O)NC(=O)[C@@H](NC(=O)[C@@H](N)Cc1ccccc1)C(C)C)C(=O)N[C@@H](Cc1ccccc1)C(=O)N[C@@H](CCC(N)=O)C(=O)N[C@@H](CCC(=O)O)C(=O)N[C@@H](Cc1ccc(O)cc1)C(=O)O", "note": "[Epitope E2]", "values": [{"measurement": "ICS CD4+ T cell recall responses (in words)", "setting": "CD4+ T cells", "result": "negative"}, {"measurement": "CD4+ % (per cent of CD4+ T cells expressing IFN-γ)", "setting": "CD4+ T cells; V69", "result": 0.00, "unit": "%"}, {"measurement": "confirmation as recalling CD8+ T cell responses", "setting": "[1]", "result": "confirmed as recalling CD8+ T cell responses"}, {"measurement": "CD4+ depl. sfc/m", "setting": "[1]; V69", "result": 254, "unit": "sfc/m"}, {"measurement": "CD4+ depl. (%) percent change in ELISpot activity", "setting": "[1]; V69", "result": "−15", "unit": "%"}, {"measurement": "CD8+ depl. sfc/m", "setting": "[1]; V69", "result": 8, "unit": "sfc/m"}, {"measurement": "CD8+ depl. (%) percent change in ELISpot activity", "setting": "[1]; V69", "result": "−97", "unit": "%"}, {"measurement": "Control dept. sfc/m", "setting": "[1]; V69", "result": 296, "unit": "sfc/m"}, {"measurement": "Epitope sfc/m", "setting": "[2]; volunteer 69 (Ad-C)", "result": 268, "unit": "sfc/m"}, {"measurement": "Epitope sfc/m", "setting": "[2]; volunteer 127 (Ad-CA)", "result": 89, "unit": "sfc/m"}, {"measurement": "ELISpot response to synthesized epitope (in words)", "setting": "[2]", "result": "active; also recorded: demonstrated activity"}, {"measurement": "ICS CD8+ T cell recall responses (in words)", "setting": "CD8+ T cells", "result": "positive"}, {"measurement": "CD8+ % (per cent of CD8+ T cells expressing IFN-γ)", "setting": "CD8+ T cells; V69", "result": 0.48, "unit": "%"}]}
{"compound": "CC(C)C[C@H](NC(=O)[C@H](C)NC(=O)[C@H](CCC(=O)O)NC(=O)[C@@H](NC(=O)[C@H](Cc1ccccc1)NC(=O)[C@@H](N)CC(C)C)C(C)C)C(=O)N[C@@H](Cc1ccccc1)C(=O)N[C@@H](CCC(N)=O)C(=O)N[C@@H](CCC(=O)O)C(=O)N[C@@H](Cc1ccc(O)cc1)C(=O)O", "note": "[Epitope E3] (H-LFVEALFQEY-OH; N-terminus and C-terminus assumed)", "values": [{"measurement": "Epitope sfc/m", "setting": "[2]; volunteer 69 (Ad-C)", "result": 259, "unit": "sfc/m"}, {"measurement": "Epitope sfc/m", "setting": "[2]; volunteer 127 (Ad-CA)", "result": 99, "unit": "sfc/m"}, {"measurement": "ELISpot response to synthesized epitope (in words)", "setting": "[2]", "result": "active; also recorded: positive; also recorded: demonstrated activity"}]}
{"compound": "CC[C@H](C)[C@H](NC(=O)[C@@H](N)CC(C)C)C(=O)N[C@@H](CCSC)C(=O)N[C@H](C(=O)N[C@@H](CC(C)C)C(=O)N[C@@H](CO)C(=O)N[C@@H](Cc1ccccc1)C(=O)N[C@@H](CC(C)C)C(=O)N[C@@H](Cc1ccccc1)C(=O)N[C@@H](CC(C)C)C(=O)O)C(C)C", "note": "[Epitope E17]", "values": [{"measurement": "Epitope sfc/m", "setting": "[2]; volunteer 156 (Ad-CA)", "result": 156, "unit": "sfc/m"}, {"measurement": "ELISpot response to synthesized epitope (in words)", "setting": "[2]", "result": "positive"}]}
{"compound": "CC[C@H](C)[C@H](NC(=O)[C@H](C)N)C(=O)N[C@@H](CC(C)C)C(=O)N[C@@H](CO)C(=O)N[C@H](C(=O)N[C@@H](CO)C(=O)N[C@@H](CO)C(=O)N[C@@H](Cc1ccccc1)C(=O)N[C@@H](CC(C)C)C(=O)O)C(C)C", "note": "[Epitope E18a]", "values": [{"measurement": "ELISpot response to synthesized epitope (in words)", "setting": "[2]", "result": "demonstrated activity"}]}
{"compound": "AILSVSSFLF [Epitope E18]", "values": [{"measurement": "Epitope sfc/m", "setting": "[2]; volunteer 63 (Ad-C)", "result": 41, "unit": "sfc/m"}, {"measurement": "ELISpot response to synthesized epitope (in words)", "setting": "[2]", "result": "positive"}]}
{"compound": "DKHIKEYLNKIQNSL [Cp6-C47]", "values": [{"measurement": "15 mer sfc/m", "setting": "[2]; volunteer 61 (Ad-C)", "result": 48, "unit": "sfc/m"}]}
{"compound": "EALFQEYQCYGSSSN [Cp1-05, 15mer CSP peptide aa 17-31]", "values": [{"measurement": "15 mer sfc/m", "setting": "[2]; volunteer 58 (Ad-C)", "result": 105, "unit": "sfc/m"}]}
{"compound": "EKKICKMEKCSSVFN [Cp9-C60, 15mer CSP peptide aa 365-379]", "values": [{"measurement": "15 mer sfc/m", "setting": "[2]; volunteer 61 (Ad-C)", "result": 39, "unit": "sfc/m"}]}
{"compound": "ELNYDNAGTNLYNEL [Cp2-C10, 15mer CSP peptide aa 37-51]", "values": [{"measurement": "15 mer sfc/m", "setting": "[2]; volunteer 41 (Ad-C)", "result": 35, "unit": "sfc/m"}]}
{"compound": "FLFVEALFQE [Epitope E1]", "values": [{"measurement": "Epitope sfc/m", "setting": "[2]; volunteer 58 (Ad-C)", "result": 49, "unit": "sfc/m"}, {"measurement": "Epitope sfc/m", "setting": "[2]; volunteer 156 (Ad-CA)", "result": 105, "unit": "sfc/m"}, {"measurement": "ELISpot response to synthesized epitope (in words)", "setting": "[2]", "result": "active; also recorded: positive; also recorded: demonstrated activity"}]}
